The source of these data is patent US6900024B2, “T cell receptor ligands and methods of using same” (The United States of America as represented by the …, priority 1993, dated 2005).

Ends that are not written are not given here. * marks the point of attachment. long‑chain biotin = O=C(CCCC[C@@H]1SC[C@@H]2NC(=O)N[C@@H]21)NCCCCCC(=O)*

The subject of assay [1] is MHC molecules with kss Eβ chains. Description: Peptide binding to cell-associated class II MHC molecules using biotinylated peptides. Also noted: species or system mouse. Here is the method:
A modified version of the assay described in Busch et al., Int. Immunol., 2, 443-51 (1990), was used to measure peptide binding to cell-associated class II MHC molecules. After extensive washing in phosphate buffered saline (PBS)-1% bovine serum albumin (BSA), 2×10^5 DAP.3 cells or DAP.3 transfectants expressing various EαEβ molecules were incubated at 37° C. in 200 μl of PBS-2% FCS containing the indicated concentration of biotinylated peptide. In the competition experiments competitors were added at the same time as labeled peptide and at the indicated concentrations. After 4 hours, the cells were washed and stained with a sandwich of FITC-avidin (Vector), biotinylated-anti-avidin (Vector), and FITC-avidin (Vector). After washing, the cells were analyzed on a FAScan flow cytometer for fluorescence. Only viable cells were considered in the analysis, as determined by PI staining. The data are expressed as net mean fluorescence intensity (MFI), calculated by subtracting from the actual MFI the MFI obtained by staining in the absence of biotinylated-peptide. Percent inhibition in the competition experiments was calculated as: % of I=(net MFI without competitor−net MFI with competitor)/(net MFI without […]).

The subject of assay [2] is 3C6 Th1 cells. The assay can be described thus: IL-2 production by 3C6 Th1 cells co-cultured with transfected L cells (CTLL indicator cells). The format is cell-based, mouse. As to conditions: L cells expressing MHC molecules with kss Eβ chains. As for the experimental part:
Production of IL-2 and IL-3 in response to L cell transfectants in the presence or absence of added peptide was measured as described in Ronchese et al., Nature, 329, 254-6 (1987b). In brief, 2−5×10^4 T cells were incubated with 2−5×10^4 transfected L cells in the wells of 96-well flat bottom culture plates in 200 μl of complete medium with or without various concentrations of peptide antigen. Supernatants were collected after 24 hours and assayed for IL-2 content using CTLL indicator cells, or for IL-3 content using FDC.1 cells. IL-2 and IL-3 units were calculated as the inverse of the dilution giving 50% of the maximum ^3H-thymidine incorporation by CTLL (IL-2) or FDC.1 (IL-3) cells observed with reference IL-2 and IL-3 preparations. Proliferative responses were measured by assessing ^3H-thymidine incorporation between 48-66 hrs of culture. For experiments in which the data are expressed as “% max” or “% alloresponse”, the actual absolute 100% responses were: IL-2 alloresponse, 10-40 units/ml; IL-3 alloresponse, 100-500 units/ml; IL-2 response to EαEβ^k plus PCC peptide, 150-300 units/ml; IL-3 response to EαEβ^k plus PCC peptide, 1000-10,000 units/ml; IL-2 response to fixed cells bearing EαEβ^k plus PCC peptide, 30-50 units/ml; IL-3 response to fixed cells bearing EαEβ^k plus PCC peptide, 50-200 units/ml. […]

On to “HEL 46-61: hen egg lysozyme (HEL) peptide 46-61”, for which the “binding to MHC molecule with kss chains, competition for binding of biotinylated-DASP” value in assay [1] (biotinylated-DASP 25 μM, FIG. 2A) is “able to bind the MHC molecule with kss chains to a similar extent as the inhibitory PCC 81-104 peptide”.
Consider “HEL 81-96: hen egg lysozyme (HEL) peptide 81-96, with NH2-terminal long-chain biotin in FIG. 3 ({long‑chain biotin}-SALLSSDITASVNCAK; UniProt P00698 99-114, looked up, fragment)”, for which, in assay [2], the “effect of peptide on alloreactive stimulation of IL-2 production” value is recorded as “lacked ability to inhibit alloreactive stimulation of IL-2 production”. Also, the “direct binding of biotinylated peptide to MHC molecules with kss chains” value in assay [1] (FIG. 3A) is “bound well to the MHC molecules with kss chains”.
